Where “and” joins values, the source holds several entries; their conditions need not be identical. Equal values may be shown once.
Test system: Wistar (Crl:WI(Han)) rats
Test: Mass spectrometry-based plasma metabolite profiling of rats treated with known inducers of thyroid function impairment
Type: in vivo, rat
Conditions: ratio of group medians vs controls
Source text: At the beginning of the study the animals were 10-11 weeks old. Each dose group in the studies consisted of five rats per sex, and was compared with controls (10 rats per sex). […] The dose levels were chosen to show the typical overt (high dose) and slight (low dose) toxicological symptoms of the substances as described in the literature or in BASF internal study reports.
Blood samples were withdrawn from the retro-orbital sinus in all rats under isoflurane anesthesia on study days 7, 14 and 28 after a fasting period of 16-20 hours.
For mass spectrometry-based metabolite profiling analysis, plasma samples were extracted by a proprietary method which delivers a polar and a non-polar fraction. For GC-MS analysis, the non-polar fraction was treated with methanol under acidic conditions to yield the fatty acid methyl esters. Both fractions were further derivatised with Omethyl-hydroxyamine hydrochloride and pyridine to convert oxo groups to Omethyloximes and subsequently with a silylating agent before analysis.
In LC-MS/MS analysis, both fractions were reconstituted in appropriate solvent mixtures. HPLC was performed by gradient elution on reversed phase separation columns. For mass spectrometric detection metanomics proprietary technology was applied, which allows target and high sensitivity MRM (Multiple Reaction Monitoring) profiling in parallel to a full screen analysis. […] Moreover, several hundred additional analytes giving a fingerprint of the sample were included in the methods.
Following comprehensive analytical validation steps, the data for each analyte were normalized against data from pool samples. These samples were run in parallel through the whole process to account for process variability.
The sex- and day-stratified heteroscedastic t-test (“Welch test”) was applied to compare treated groups with respective controls. p-Values and ratios of corresponding group medians were collected as metabolic profiles and fed into a database.

[1] = female rats, fh7 (study day 7), Table 1
[2] = female rats, fh14 (study day 14), Table 1
[3] = female rats, fh28 (study day 28), Table 1
[4] = male rats, mh7 (study day 7), Table 2
[5] = male rats, mh14 (study day 14), Table 2
[6] = male rats, mh28 (study day 28), Table 2

**Q.** How did the 5-O-Methylsphingosine [1] turn out when `S=C1NCCN1` [Ethylenethiourea] was run?
**A.** 1.29 and 1.20

**Q.** And the Asparagine [1]?
**A.** 1.06 and 1.35

**Q.** What about the “Behenic acid (C22:0)” value [1] of the same compound?
**A.** 1.48 and 1.27

**Q.** What about the Citrate [1] of the same compound?
**A.** 0.89 and 0.78

**Q.** What about the “Docosahexaenoic acid (C22:cis[4,7,10,13,16]6)” value (“Docosahexaenoic acid” below) [1] of the same compound?
**A.** 1.12 and 1.29

**Q.** What about the Glycine [1] of the same compound?
**A.** 1.21 and 1.09

**Q.** What about the Ketoleucine [1] of the same compound?
**A.** 0.93 and 0.84

**Q.** And the “Lysophosphatidylcholine (C18:2)” value [1]?
**A.** 1.08

**Q.** And the “Phosphatidylcholine (C16:1, C18:2)” value [1]?
**A.** 1.43 and 1.26

**Q.** What about the “Phosphatidylcholine (C18:2, C20:4)” value [1] of the same compound?
**A.** 1.09 and 1.02

**Q.** And the Pyruvate [1]?
**A.** 1.29 and 0.74

**Q.** What about the “Tricosanoic acid (C23:0)” value [1] of the same compound?
**A.** 1.38 and 1.44

**Q.** And the erythro-Sphingosine [1]?
**A.** 1.46 and 1.39

**Q.** And the threo-Sphingosine [1]?
**A.** 1.35 and 1.58

**Q.** What about the “Sphingomyelin (d18:1, C16:0)” value (female rats, fh7 (study day 7), Table 1, first listing) of the same compound?
**A.** 1.71 and 1.62

**Q.** And the “Sphingomyelin (d18:1, C16:0)” value (female rats, fh7 (study day 7), Table 1, second listing)?
**A.** 1.29 and 1.46

**Q.** And the 5-O-Methylsphingosine [2]?
**A.** 1.56 and 1.59

**Q.** And the Asparagine [2]?
**A.** 1.31 and 1.27

**Q.** What about the “Behenic acid (C22:0)” value [2] of the same compound?
**A.** 1.29 and 1.69

**Q.** And the Citrate [2]?
**A.** 0.85 and 0.86

**Q.** And the “Docosahexaenoic acid” value [2]?
**A.** 1.45 and 1.24

**Q.** And the Glycine [2]?
**A.** 1.24 and 1.18

**Q.** What about the Ketoleucine [2] of the same compound?
**A.** 0.84 and 0.82

**Q.** And the “Lysophosphatidylcholine (C18:2)” value [2]?
**A.** 1.19 and 1.17

**Q.** And the “Phosphatidylcholine (C16:1, C18:2)” value [2]?
**A.** 1.43 and 1.54

**Q.** What about the “Phosphatidylcholine (C18:2, C20:4)” value [2] of the same compound?
**A.** 1.15 and 1.09

**Q.** And the Pyruvate [2]?
**A.** 0.79 and 1.14

**Q.** What about the “Tricosanoic acid (C23:0)” value [2] of the same compound?
**A.** 1.52 and 1.30

**Q.** And the erythro-Sphingosine [2]?
**A.** 1.71 and 1.98

**Q.** And the threo-Sphingosine [2]?
**A.** 1.47 and 1.61

**Q.** And the “Sphingomyelin (d18:1, C16:0)” value (female rats, fh14 (study day 14), Table 1, first listing)?
**A.** 1.43 and 1.55

**Q.** And the “Sphingomyelin (d18:1, C16:0)” value (female rats, fh14 (study day 14), Table 1, second listing)?
**A.** 1.06 and 1.34

**Q.** And the 5-O-Methylsphingosine [3]?
**A.** 1.63 and 1.59

**Q.** And the Asparagine [3]?
**A.** 1.26 and 0.84

**Q.** And the “Behenic acid (C22:0)” value [3]?
**A.** 1.69 and 1.27

**Q.** And the Citrate [3]?
**A.** 0.70 and 0.91

**Q.** What about the “Docosahexaenoic acid” value [3] of the same compound?
**A.** 1.22 and 1.11

**Q.** What about the Glycine [3] of the same compound?
**A.** 1.32 and 1.01

**Q.** And the Ketoleucine [3]?
**A.** 0.88 and 0.74

**Q.** What about the “Lysophosphatidylcholine (C18:2)” value [3] of the same compound?
**A.** 1.10 and 1.23

**Q.** What about the “Phosphatidylcholine (C16:1, C18:2)” value [3] of the same compound?
**A.** 1.41 and 1.30

**Q.** And the “Phosphatidylcholine (C18:2, C20:4)” value [3]?
**A.** 1.06 and 1.04

**Q.** What about the Pyruvate [3] of the same compound?
**A.** 0.69 and 1.04

**Q.** And the “Tricosanoic acid (C23:0)” value [3]?
**A.** 1.42 and 1.05

**Q.** What about the erythro-Sphingosine [3] of the same compound?
**A.** 1.51 and 1.35

**Q.** And the threo-Sphingosine [3]?
**A.** 1.51 and 1.26

**Q.** And the “Sphingomyelin (d18:1, C16:0)” value (female rats, fh28 (study day 28), Table 1, first listing)?
**A.** 1.70 and 1.38

**Q.** And the “Sphingomyelin (d18:1, C16:0)” value (female rats, fh28 (study day 28), Table 1, second listing)?
**A.** 1.16 and 1.07

**Q.** And the 3-O-Methylsphingosine [4]?
**A.** 2.26

**Q.** And the 5-O-Methylsphingosine [4]?
**A.** 2.36

**Q.** And the 14-Methyl-Pentadecanoic acid [4]?
**A.** 0.98

**Q.** And the 17-Methyloctadecanoic acid [4]?
**A.** 0.97

**Q.** What about the Arginine [4] of the same compound?
**A.** 1.24

**Q.** What about the Cholesterol [4] of the same compound?
**A.** 1.74

**Q.** And the Citrate [4]?
**A.** 0.86

**Q.** And the “Dihom-gamma-Linolenic acid (C20:cis[8,11,14]3)” value (from here on “Dihom-gamma-Linolenic acid”) [4]?
**A.** 2.34

**Q.** And the “Lignoceric acid (C24:0)” value [4]?
**A.** 1.94

**Q.** And the Phytosphingosine [4]?
**A.** 1.53

**Q.** And the “Sphingomyelin (d18:1, C16:0)” value [4]?
**A.** 1.65

**Q.** What about the “Tricosanoic acid (C23:0)” value [4] of the same compound?
**A.** 1.67

**Q.** What about the alpha-Tocopherol [4] of the same compound?
**A.** 2.58

**Q.** And the erythro-Sphingosine [4]?
**A.** 2.06

**Q.** And the threo-Sphingosine [4]?
**A.** 2.05

**Q.** And the Glutamate (male rats, mh7 (study day 7), Table 2, first listing)?
**A.** 1.07

**Q.** What about the Glutamate (male rats, mh7 (study day 7), Table 2, second listing) of the same compound?
**A.** 1.15

**Q.** What about the 3-O-Methylsphingosine [5] of the same compound?
**A.** 2.34

**Q.** What about the 5-O-Methylsphingosine [5] of the same compound?
**A.** 2.37

**Q.** What about the 14-Methyl-Pentadecanoic acid [5] of the same compound?
**A.** 0.96

**Q.** What about the 17-Methyloctadecanoic acid [5] of the same compound?
**A.** 0.83

**Q.** What about the Arginine [5] of the same compound?
**A.** 1.30

**Q.** What about the Cholesterol [5] of the same compound?
**A.** 2.25

**Q.** What about the Citrate [5] of the same compound?
**A.** 0.81

**Q.** What about the “Dihom-gamma-Linolenic acid” value [5] of the same compound?
**A.** 1.84

**Q.** What about the “Lignoceric acid (C24:0)” value [5] of the same compound?
**A.** 1.66

**Q.** And the Phytosphingosine [5]?
**A.** 1.67

**Q.** What about the “Sphingomyelin (d18:1, C16:0)” value [5] of the same compound?
**A.** 1.69

**Q.** And the “Tricosanoic acid (C23:0)” value [5]?
**A.** 2.01

**Q.** What about the alpha-Tocopherol [5] of the same compound?
**A.** 2.99

**Q.** What about the erythro-Sphingosine [5] of the same compound?
**A.** 2.06

**Q.** And the threo-Sphingosine [5]?
**A.** 2.03

**Q.** What about the Glutamate (male rats, mh14 (study day 14), Table 2, first listing) of the same compound?
**A.** 0.73

**Q.** What about the Glutamate (male rats, mh14 (study day 14), Table 2, second listing) of the same compound?
**A.** 0.82

**Q.** What about the 3-O-Methylsphingosine [6] of the same compound?
**A.** 2.91

**Q.** What about the 5-O-Methylsphingosine [6] of the same compound?
**A.** 2.78

**Q.** What about the 14-Methyl-Pentadecanoic acid [6] of the same compound?
**A.** 0.77

**Q.** And the 17-Methyloctadecanoic acid [6]?
**A.** 0.89

**Q.** And the Arginine [6]?
**A.** 1.20

**Q.** And the Cholesterol [6]?
**A.** 1.98

**Q.** And the Citrate [6]?
**A.** 0.64

**Q.** What about the “Dihom-gamma-Linolenic acid” value [6] of the same compound?
**A.** 2.68

**Q.** And the “Lignoceric acid (C24:0)” value [6]?
**A.** 2.07

**Q.** What about the Phytosphingosine [6] of the same compound?
**A.** 2.17

**Q.** What about the “Sphingomyelin (d18:1, C16:0)” value [6] of the same compound?
**A.** 1.79

**Q.** What about the “Tricosanoic acid (C23:0)” value [6] of the same compound?
**A.** 2.39

**Q.** And the alpha-Tocopherol [6]?
**A.** 3.13

**Q.** What about the erythro-Sphingosine [6] of the same compound?
**A.** 2.29

**Q.** And the threo-Sphingosine [6]?
**A.** 2.05

**Q.** What about the Glutamate (male rats, mh28 (study day 28), Table 2, first listing) of the same compound?
**A.** 0.70

**Q.** And the Glutamate (male rats, mh28 (study day 28), Table 2, second listing)?
**A.** 0.77
